Reference: publication PMC8414802, “Hair Cell Generation in Cochlear Culture Models Mediated by Novel γ-Secretase Inhibitors” (Frontiers in Cell and Developmental Biology, 2021)

Tested on: hair cell genes (Atoh1, Pou4f3, Myo7a) and supporting cell gene (Hes5) in cochlear organoids
Assay: Cochlear organoids from Atoh1-nGFP mice, gene expression by RT-PCR
Format: cell-based
Conditions: mouse organoids, 5 μM, end of differentiation, vs untreated
Protocol: On day 0, the cochlear sensory epithelium was dissected and the OC was separated from the modiolus and stria vascularis, as described above, from either Wistar rat pups (P2), Lgr5-GFP mice (P0–P2) or Atoh1-GFP mice (P0–P2). To separate the sensory epithelial layer from underlying mesenchyme and neurons, the OC was placed in a 100 μl drop of Matrisperse Cell Recovery Solution (Corning) for 1 h at RT, then delaminated with the aid of forceps. Gentle enzymatic dissociation of hair cells and supporting cells followed with 100 μl drop of TrypLE (Gibco), 20 min at 37°C, then mechanical trituration in DMEM/F12. The cell suspension was centrifuged for 5 min at 500 g at 4°C and resuspended in DMEM/F12 medium supplemented with B27 and N2 (Invitrogen), EGF (50 ng/ml), bFGF (50 ng/ml), IGF (25 ng/ml), CHIR99021 (GSK-3β inhibitor, 3 μM, Merck), valproic acid (HDAC inhibitor, 1 mM, Sigma), 2-phospho-L-ascorbic acid (280 μM, Stemcell Technologies) and 0.01% ampicillin (Sigma). Cells were plated at 2,000 cells per well on 96 wells plate (Corning Costar; ultra-low attachment, round-bottom) to allow aggregation at 37°C. On day 1, Matrigel (GF-depleted, Corning; 2% stock) was added to a final concentration of 0.18 mg/ml. On day 3, cells were transferred to 24 wells plate (ultra-low attachment; Corning Costar), pooling the organoid aggregates from 4 to 5 wells (96 well-plate) to one 24-well, culturing at 37°C and exchanging half medium and Matrigel every other day, On day 10, organoids were differentiated by replacing medium with DMEM/F12 supplemented with B27, N2, CHIR99021 (3 μM), and Notch inhibitors CPD3 (5 μM) or LY411575 (5 μM), and culture was continued as above for another 10 days.
Cells or tissue were lysed using RLT Lysis Buffer (Qiagen) and high purity RNA was prepared on the MagNA Pure instrument using MagNA Pure 96 Cellular RNA LV Kit (Roche). […] Normalized to Tbp, relative gene expression fold-change was quantified and compared between experimental and control conditions by ΔΔCt calculation. […]

## COc1ccc2c(c1)N1CCC(C)(C)C1=CC(=O)[C@H]2NC(=O)[C@H](C)NC(=O)CCC(F)(F)F [CPD3]
  Atoh1 expression: 8.07 ± 5.6 fold
  Myo7a expression: 9.9 ± 10.5 fold
  Pou4f3 expression: 12.65 ± 11.07 fold
